Experimental data taken from US6583283B1, “Polymorphic forms of cipamfylline” (SmithKline Beecham Corporation, priority 1997, dated 2003).

Assays:
Format in all cases: physicochemical
[1] = Solubility in recrystallization solvents; conditions: solvents marked with an asterisk, such as toluene or water
[2] = Compression and grinding study; conditions: for Stability to compression / Stability to grinding: polymorphic form followed by IR
Experimental: These spectra were recorded using a Spectra-Tech Plan II microscope coupled to a P-E 1760 FTIR spectrometer (64-256 scans, ratio mode, MCT detector, 4 cm^−1 resolution, dry air purge). Spectra of samples without sample preparation were obtained by mounting crystals on a diamond window. Crushed crystals were prepared using a Spectra-Tech micro-Sample Plan (a compression cell) fitted with diamond windows. A stereo microscope was used to observe the behavior of the crystals during compression. After compression, the diamond windows were separated and a spectrum was recorded of the material adhering to one of the windows.

[3] = Heats of solution in methanol and acetone; conditions: for Heat of solution, Acetone / Heat of solution, Methanol: endothermic; for Heat of solution, Acetone: solvent acetone; for Heat of solution, Methanol: solvent methanol
Experimental: Heats of solution were determined using acetone and methanol as suitable solvents. Different polymorphic forms give rise to different heats of solution. […] The value of HT, the heat of transition, is equal to the difference in crystal lattice energy of the two forms and is the same in both solvents. This is predicted since individual enthalpies are solvent dependent but difference are not. […] Heats of solution for Form IV are in progress.

[4] = Thermal analysis (thermomicroscopy, annealing); conditions: for Polymorphic form after annealing (by IR): 10° C./min from ambient to ca. 250° C., held ½-1 hour, slow cooling to room temperature
Experimental: Differential Scanning Calorimetry (DSC) could not differentiate the three forms of Cipamfylline. […] However, when the heating rate was reduced sufficiently, the melting endotherm appeared as a fused melt, i.e. two components melting. This behavior was common to both Forms I and II.
The onset of sublimation was different for each form and continued over a wide temperature range (130-290° C. on a non-calibrated instrument). This is not evident on the DSC thermograms. Melting occurred over a range (310-323° C. on a non-calibrated instrument) for all three forms. The possibility of two components melting consecutively could not be distinguished. The sublimate was collected for all three forms and analyzed by IR and NMR.
The annealing procedure consisted of heating at 10° C./min from ambient to ca. 250° C. and holding at this point for ½-1 hour, then allowing the sample to cool slowly to room temperature.
This could explain the similarity in melting points of the three forms.

Crystalline stability = conditions: Forms I, II and IV compared
Text: Form I is characterized by a minimum of five years crystalline stability.

Which Solubility in solvent [1] does the source give for `Nc1nc2c([nH]1)c(=O)n(CC1CC1)c(=O)n2CC1CC1` [Cipamfylline, 1,3-di-cyclopropylmethyl-8-amino xanthine] here?
The Solubility in solvent was “particularly low solubility”.

For `Nc1nc2c([nH]1)c(=O)n(CC1CC1)c(=O)n2CC1CC1` [Form IV, 1,3-di-cyclopropylmethyl-8-amino xanthine], which “Polymorphic conversion under pressure” value ([2]; under pressure, under some circumstances) is on record?
Its value is “convert to Form I”.

For `Nc1nc2c([nH]1)c(=O)n(CC1CC1)c(=O)n2CC1CC1` [Form II, 1,3-di-cyclopropylmethyl-8-amino xanthine], which “Relative stability suggested by heats of solution” value ([3]; Form I vs Form II, both solvents) is on record?
The value was “the more stable form”.

And the “Heat of solution, Acetone” value ([3]; listed as 2)?
The value was 5.59 kcal/mol.

What about the “Heat of solution, Methanol” value ([3]; listed as 2) of the same compound?
Its value is 6.47 kcal/mol.

What about the Stability to compression [2] of the same compound?
Its Stability to compression is “stable to compression”.

And the Stability to grinding [2]?
Its Stability to grinding is “not to severe grinding”.

What about the “Polymorphic form after annealing (by IR)” value [4] of the same compound?
The value was “converted to Form I”.

Which “Heat of solution, Acetone” value ([3]; listed as 1) does the source give for `Nc1nc2c([nH]1)c(=O)n(CC1CC1)c(=O)n2CC1CC1` [Form I, 1,3-di-cyclopropylmethyl-8-amino xanthine] here?
The value was 3.93 kcal/mol.

And the “Heat of solution, Methanol” value ([3]; listed as 1)?
Its value is 4.81 kcal/mol.

And the Stability to compression [2]?
The Stability to compression was “stable”.

What about the Stability to grinding [2] of the same compound?
The Stability to grinding was “stable”.

What about the “Relative stability indicated by thermal experiments” value [4] of the same compound?
The value was “the most stable form”.

And the “Polymorphic form after annealing (by IR)” value [4]?
The value was “converted to Form I”.

And the “Relative stability among the three polymorphs” value (Crystalline stability)?
Its value is “greatest stability”.
